Test results: patent publication US4835154A, “1-aralykyl-5-piperazinylmethyl-2-mercaptoimidazoles and 2-alkylthioimidazoles and their use as dopamine-βhydroxylase inhibitors” (SmithKline Beckman Corporation, priority 1987, dated 1989)

Tests used:
DBH [1] = biological target: T1, DBH (Homo sapiens, UniProt P09172); conditions: literature reports; cited from earlier work
T1 sequence (P09172 1-617): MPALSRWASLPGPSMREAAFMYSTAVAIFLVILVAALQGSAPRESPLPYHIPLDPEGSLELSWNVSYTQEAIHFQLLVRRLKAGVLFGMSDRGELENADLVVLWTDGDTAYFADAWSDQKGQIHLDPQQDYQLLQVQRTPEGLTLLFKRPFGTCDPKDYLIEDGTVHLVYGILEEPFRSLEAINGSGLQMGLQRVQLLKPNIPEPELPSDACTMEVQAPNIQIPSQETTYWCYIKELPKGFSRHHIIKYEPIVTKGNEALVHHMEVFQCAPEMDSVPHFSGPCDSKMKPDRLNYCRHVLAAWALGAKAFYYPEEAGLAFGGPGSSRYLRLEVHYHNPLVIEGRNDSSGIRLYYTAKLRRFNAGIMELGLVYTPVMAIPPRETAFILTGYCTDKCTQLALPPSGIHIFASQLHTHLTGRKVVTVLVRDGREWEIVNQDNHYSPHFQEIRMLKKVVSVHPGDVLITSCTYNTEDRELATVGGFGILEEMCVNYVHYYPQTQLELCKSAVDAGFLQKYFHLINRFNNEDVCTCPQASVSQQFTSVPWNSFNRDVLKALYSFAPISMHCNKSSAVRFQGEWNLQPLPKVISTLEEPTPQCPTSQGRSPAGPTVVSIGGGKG

[2] = Ehrreich et al., 1976; cited from earlier work
DBH [3] = biological target: T2, DBH (Bos taurus, UniProt P15101); test: in vitro DBH inhibition, conversion of tyramine to octopamine; format: biochemical; conditions: molar concentration of compound at which DBH activity was halved; octopamine assayed as p-hydroxybenzaldehyde at 330 nm
T2 sequence (P15101 1-610): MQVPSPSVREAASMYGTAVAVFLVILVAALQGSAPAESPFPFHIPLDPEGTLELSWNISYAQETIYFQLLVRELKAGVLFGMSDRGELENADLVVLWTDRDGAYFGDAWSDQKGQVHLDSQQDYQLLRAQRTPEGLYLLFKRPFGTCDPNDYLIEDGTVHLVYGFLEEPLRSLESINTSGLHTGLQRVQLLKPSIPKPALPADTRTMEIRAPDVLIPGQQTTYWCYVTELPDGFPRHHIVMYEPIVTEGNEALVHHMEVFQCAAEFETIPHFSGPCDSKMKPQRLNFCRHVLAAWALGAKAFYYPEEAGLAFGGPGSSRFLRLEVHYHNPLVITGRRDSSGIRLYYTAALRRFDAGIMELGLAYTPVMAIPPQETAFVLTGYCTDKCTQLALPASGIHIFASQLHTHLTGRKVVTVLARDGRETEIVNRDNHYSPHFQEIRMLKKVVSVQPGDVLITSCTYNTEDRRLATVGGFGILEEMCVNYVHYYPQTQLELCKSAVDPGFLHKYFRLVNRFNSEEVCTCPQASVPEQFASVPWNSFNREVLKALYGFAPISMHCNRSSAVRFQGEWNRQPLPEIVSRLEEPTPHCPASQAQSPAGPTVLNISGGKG
Experimental: Listed in Table I is the compound of the invention that was tested for in vitro DBH inhibition by a standard procedure for assaying conversion of tyramine to octopamine in the presence of DBH. J. J. Pisano, et al., Biochim. Biophys. Acta, 43, 566-568 (1960). Octopamine was assayed following sodium periodate oxidation to p-hydroxybenzaldehyde by measuring spectrophotometric absorbance at 330 nm. In Table I, inhibition is given in molar concentration of compound at which DBH activity was halved (IC50). Fusaric acid, by this test has an IC50 of 8×10^-7 M.

[4] = tested on: spontaneously hypertensive rats; test: mean arterial blood pressure in spontaneously hypertensive rats; format: in vivo; conditions: 50 mg/kg intraperitoneally, vs vehicle-treated controls
Experimental: Further, spontaneously hypertensive rats were treated with the compound in Table I at a dose of 50 mg/kg intraperitoneally, and mean arterial blood pressure was monitored for 260 minutes using indwelling cannulae in the tail arteries. […] The maximal blood pressure reduction was approximately 25 mmHg.

[5] = Teresawa et al., 1971; cited from earlier work

SMILES	DBH inhibition (in words) (DBH [1])	other results
O=C(O)c1ccc(CCC(Br)CBr)cn1 (stereo not drawn) [5-(3,4-dibromobutyl)picolinic acid]	DBH inhibitors	–
O=C(O)c1ccc(CCCCCl)cn1 [5-(4-chlorobutyl) picolinic acid]	inhibit DBH	–
CN(C)C(=S)SCc1ccc(C(=O)O)nc1 [5-(dimethyldithiocarbamoylmethyl)picolinic acid]	DBH inhibitors	–
NOCc1ccccc1 [Benzyloxyamine]	competitive inhibitors	–
CCCCc1ccc(C(N)=O)nc1 [Bupicomide, 5-(n-butyl)picolinamine]	DBH inhibitor	antihypertensive activity [2]: antihypertensive activity
CN1CCN(Cc2cnc(S)n2Cc2cc(F)cc(F)c2)CC1 [Example 1, 1-(3,5-Difluorobenzyl)-5-[(4-methyl-1-piperazinyl)methyl]-2-mercaptoimidazole]	–	IC50 (DBH [3]): 590 µM; maximal blood pressure reduction ([4]; mean arterial blood pressure monitored for 260 minutes): approximately 25 mmHg; time to significant blood pressure reductions following treatment [4]: ≤ 30 min; blood pressure effect ([4]; within 30 minutes): significant blood pressure reductions
CCCCc1ccc(C(=O)O)nc1 [Fusaric acid]	–	hepatotoxicity [5]: hepatotoxic
NNCc1ccccc1 [benzylhydrazine]	competitive inhibitors	–
